Measurements reported in patent US8859615B2, “Compounds, compositions and methods for reducing toxicity and treating or preventing diseases” (priority 2008, dated 2014).
Several values for one entry are separate records, joined by “and”; a condition that tells them apart may be missing. Equal values may be shown once. Read-outs that look alike come from different tables or passages of the source.

Tests used:
[1] = system: quinone reductase (NQO1) in Hepa 1c1c7 murine hepatoma cells; experiment: Phase 2 enzyme inducer activity (Prochaska microtiter plate bioassay); conditions: Hepa 1c1c7 cells
Experimental: Pure panaxytriol was dissolved in dimethyl sulfoxide. Phase 2 enzyme inducer activity was measured using a rapid assay of activity of representative phase 2 enzyme in a cell line. This assay was originally developed by Prochaska and colleagues as in Prochaska H J, Santamaria A B, Talalay P. “Rapid detection of inducers of enzymes that protect against carcinogens.” Proc Natl Acad Sci US A 1992; 89:2394-2398, and has been further refined as in Fahey J W, Dinkova-Kostova A T, Stephenson K K, Talalay P. “The “Prochaska” microtiter plate bioassay for inducers of NQO1.” Methods Enzymol. 2004; 382:243-258, each of which are incorporated by reference in its entirety. Briefly, Hepa 1c1c7 murine hepatoma cells were grown in 96-well microtiter plates. Serial dilutions of the extracts or compounds which were assayed were added into the wells. After 48 hours, the cells were lysed and the activity of quinone reductase (NQO1) was assayed by the addition of a reaction mixture containing an NADPH-generating system, menadione and MTT. NQO1 catalyzes the reduction of menadione to menadiol by NADPH, and MTT is reduced nonenzymatically by menadiol, resulting in the formation of a blue color that can then be quantitated as in Prochaska H J, Santamaria A B. “Direct measurement of NAD(P)H:quinone reductase from cells cultured in microtiter wells: a screening assay for anticarcinogenic enzyme inducers.” Anal. Biochem. 1988; 169:328-336, which is incorporated by reference in its entirety. […] NQO1 activity and protein content of the lysate were measured in duplicate plates with an optical microtiter plate absorbance reader. […] One unit of inducer activity is defined as the amount that, when added to a single microtiter well, doubles the NQO1 specific activity. Sulforaphane and β-naphthoflavone were used as positive controls in each bioassay. […] NQO1 inducer activity was assayed as described herein, and is reported here as treated/control at different concentrations of ginseng extract or component per well. […] (+) Panaxytriol (molecular weight […]), (Δ) Protopanaxatriol (molecular weight 461), (◯) Korean red SUN GINSENG® extract. The reductase assay can also be performed as disclosed in PCT Publication No. WO 06/023821, the entire contents of which are hereby incorporated in the instant application.

[2] = system: CCRF-CEM human T-cell acute lymphoblastic leukemia cells; experiment: In vitro cytotoxicity against CCRF-CEM (XTT / CCK-8 tetrazolium assay, 72 hr); conditions: Homo sapiens, CCRF-CEM, 72 h
Experimental: (§1) The cytotoxicity IC50 of each compound was measured with the XTT assay using the 2,3-bis(2-methoxy-4-nitro-5-sulfophenyl)-5-[(phenylamino)carbonyl]-2H-tetrazolium hydroxide (XTT) microculture method as described in Scudiero et al., Cancer Res., 48:4827 (1988), the contents of which are hereby incorporated by reference in their entirety. The CCK-8 assay is a cell counting kit-8 (CCK-8) tetrazolium assay using a 96-well microplate (Dojindo Molecular Technologies, Inc., Rockville, Md.) (M. Ishiyama et al., Biol. Pharm. Bull. 19: 1518, 1996). Absorbance was measured by Powerwave a XS microplate spectrophotometer. This method described is considered a general method in vitro cytotoxicity studies.
(§2) The data in Tables 2X, 3A-E, 4, 5, and 6 were obtained using the cell counting kit-8 (CCK-8) tetrazolium assay in a 96-well microplate. Five to seven concentrations of each compound in triplicate were used, and the IC50 values were determined by CompuSyn software automation (Chou T C. and Martin N. ComboSyn, Inc., 2006) based on the median-effect equation and plot (Chou T C. J. Theor. Biol. 59:235-276, 1976; Chou T C. Pharmacol. Rev. 58: 621-681, 2006). […] The r value defines the correlation coefficient of the median-effect plot which signifies the conformity to the mass-action law principle (Chou T C. J. Theor. Biol. 59:235-276, 1976; Chou T C. Pharmacol. Rev. 58:621-681, 2006). These parameters were determined by CompuSyn simulation (available at http://www.combosyn.com).
(§3) CCRF-CEM human T-cell acute lymphoblastic leukemia cells and the corresponding vinblastine-resistant cells (CCRF-CEM/VBL100) were cultured at an initial density of 5×10^4 cells per milliliter. The cultured cells were maintained in a 5% CO2-humidified atmosphere at 37° C. in RPMI medium 1640 (GIBCO/BRL) containing penicillin (100 units/mL), streptomycin (100 μg/mL, GIBCO/BRL), and 10% heat-inactivated fetal bovine serum. The cytotoxicity of each Compound of the invention was measured using the 2,3-bis(2-methoxy-4-nitro-5-sulfophenyl)-5-[(phenylamino)carbonyl]-2H-tetrazolium hydroxide (XTT) microculture method as described in Scudiero et al., Cancer Res., 48:4827 (1988), the contents of which are hereby incorporated by reference in their entirety.
(§4) Absorbance was measured by Powerwave XS microplate spectrophotometer.

[3] = system: CCRF-CEM/VBL100 vinblastine-resistant cells; experiment: In vitro cytotoxicity against vinblastine-resistant CCRF-CEM subline; assay type: cell-based, human; conditions: for IC50: Homo sapiens, CCRF-CEM, 72 h
Experimental: as §1, §2, §3, §4

leukemic CCRF CEM cells = experiment: Precursor incorporation into DNA, RNA and protein (Table 9); assay type: cell-based, human
Experimental: The radioactive tracer studies were carried out as described by Chou T C, et al. Cancer Res. 43: 3074-3079, 1983.

[4] = system: human lymphoblastic leukemic T-cell growth; experiment: Cytotoxic activity relative to stability during storage at −20° C. in DMSO (Table 10); assay type: cell-based; conditions: Homo sapiens, CCRF-CEM, 72 h, XTT, 72 hr
From the text: Without wishing to be bound by theory, the oxidized versions may be active metabolites. This theory provides an explanation of the delayed onset of therapeutic effects seen in the figures herein. The oxidized compounds may be active agents that are formed slowly upon metabolic oxidation. […] The active metabolites may explain the biphasic pharmacological properties of panaxytriol or Compound D that have been observed (FIGS. 9B, C, D; FIGS. 11D, E, F, and FIGS. 12D, E). […] Induction of the phase 2 enzymes may slow oxidation of the compounds (Ng et al., Tetrahedron Letters. 49: 7178-7179 (2008)).

[5] = system: human mammary carcinoma MX-1 cells; experiment: In vitro drug combination (median-effect / combination index, DRI) against MX-1 cell growth (Tables 5, 5A); assay type: cell-based; conditions: for IC50: MX-1, 72 hrs
Experimental: as §2
Efficacy of panaxytriol in combination with Fludelone (an illustrative tubulin-binding anticancer agent) was measured according to procedures described in more detail by Chou et al. (1984) Adv. Enz. Regul., 22:27-55, Chou et al. (1994) Nat'l Cancer Inst., 86:1517-1524, and Chou (2006) Pharmacological Reviews, […]:621-681. Software packages used for data analyses were CalcuSyn for Windows (Chou and Hayball., Multiple-drug dose effect analyzer and manual, Biosoft, Cambridge Place, Cambridge, U.K (1996)) and CompuSyn for Drug Combinations (Chou and Martin, Software for determination of synergism and antagonism and determination of IC50, ED50 and LD50, ComboSyn Inc., Paramus, N.J. (2005)). The entire contents of each of the above references are incorporated by reference in their entireties. […] DRI quantitates synergy as how many fold less of a dose is required to obtain a given level of effect for a combination of drugs versus the same effect for an individual component of the combination.

[6] = system: CCRF-CEM subline resistant to TAXOL; experiment: In vitro cytotoxicity against TAXOL-resistant CCRF-CEM subline; assay type: cell-based, human; conditions: Table 3A-2
Experimental: as §2, §4

[7] = Experimental: The experimental procedure for FIG. 14 was carried out similarly to that in FIG. 1. * means P<0.1 and ** means P<0.05. Body weight was calculated as described for FIGS. 1 and 4-7.
The experiments were performed as indicated for FIG. 14, with Compound (K) being administered orally. Compound K was administered on the days indicated by the arrows at the top of the graph, and paclitaxel was administered on the days indicated by the arrows on the bottom of the graph. Body weight was calculated as described for FIGS. 1, 4-7, 14 and 15. * means P<0.1 and ** means P<0.05.

[8] = for Total score: Table 11A, First Round, days 09-27; for 1st & 2nd Cycle Total Score / 2nd Cycle Total Score: Table 11C; for toxicity score (neurotoxicity): nude, mouse, in vivo
Experimental: The “toxicity score” (or “Total Score” in Tables 11A-C) is determined by adding the neurotoxicity ratings. The ratings used are: Normal (−, a toxicity score of 0); slightly unable to balance (+, a toxicity score of 1); hind-leg paralysis (++, a toxicity score of 2); and 4-leg paralysis and death (+++, none observed).

[9] = system: human colon carcinoma HCT-116 xenografts; experiment: Compound D with Iso-Oxazole-Fludelone or Isodehydelone in nude mice bearing HCT-116 xenografts; conditions: FIG. 15; Isodehydelone 6 hr-iv infusion, with or without oral Compound (D); n=7
[10] = Table 5, fold dose reduction allowed in the Panaxytriol + Fludelone combination

CC(C)=CCCC(C)(O)[C@H]1CC[C@]2(C)[C@@H]1[C@H](O)C[C@@H]1[C@@]3(C)CC[C@H](O)C(C)(C)[C@@H]3CC[C@]12C (stereo in doubt) [protopanaxadiol]
significant cytotoxicity observed above [1]: above 5 μg/well

C=CC(=O)C#CC#CC[C@@H](O)[C@H](O)CCCCCCC [Compound (B)]
IC50 ([2]; read-out: IC50 CCRF-CEM, Table 3, XTT, 72-hour): 4.49 ± 0.41 µM
IC50 ([3]; read-out: IC50 CCRF ± CEM/VBL): 6.29 ± 1.41 µM
fold resistance in brackets (IC50 CCRF-CEM/VBL vs CCRF-CEM) ([3]; Table 3): 1.40 x
[3H]-AdR → RNA (% Activation ↑ or Inhibition ↓) (leukemic CCRF CEM cells; 15 μM, 15 min, ↑ (activation)): 30.7 ↑ %
[3H]-dThd → DNA (% Activation ↑ or Inhibition ↓) (leukemic CCRF CEM cells; 15 μM, 15 min, ↑ (activation)): 26.1 ↑ %
[3H]-AdR → RNA (% Activation ↑ or Inhibition ↓) (leukemic CCRF CEM cells; 100 μM, 60 min, ↓ (inhibition)): 82.0 ↓ %
[3H]-dThd → DNA (% Activation ↑ or Inhibition ↓) (leukemic CCRF CEM cells; 100 μM, 60 min, ↓ (inhibition)): 78.2 ↓ %
inhibition at 15 µM (leukemic CCRF CEM cells; Homo sapiens, CCRF-CEM, 15 μM, 15 min, ↓ (inhibition), read-out: [3H] Leu → Protein (% Activation ↑ or Inhibition ↓)): 62.8%
inhibition at 100 µM (leukemic CCRF CEM cells; Homo sapiens, CCRF-CEM, 100 μM, 60 min, ↓ (inhibition), read-out: [3H] Leu → Protein (% Activation ↑ or Inhibition ↓)): 78.2%
IC50 ([4]; read-out: IC50 in μM CCRF-CEM, Table 10, Aug. 22, 2003 (Stored), same solution kept at −20° C. in DMSO): 4.78 µM
IC50 ([4]; read-out: IC50 in μM CCRF-CEM, Table 10, Jul. 25, 2003 (Fresh)): 0.72 ± 0.14 µM
IC50 ([4]; read-out: IC50 in μM CCRF-CEM/VBL, Table 10, Aug. 22, 2003 (Stored), same solution kept at −20° C. in DMSO): 5.29 µM
IC50 ([4]; read-out: IC50 in μM CCRF-CEM/VBL, Table 10, Jul. 25, 2003 (Fresh)): 0.95 µM

C/C(=C\c1csc(C)n1)[C@@H]1C/C=C(/C(F)(F)F)C/C=C/[C@H](C)[C@H](O)[C@@H](C)C(=O)C(C)(C)[C@@H](O)CC(=O)O1 [Fludelone]
IC50 ([5]; Table 5, Panaxytriol + Fludelone combination (1.199 + 0.0012), read-out: Dose-effect parameter Dm (IC50) of the component in the combination): 0.0012 µM
IC50 ([5]; Table 5, each drug alone, read-out: Dose-effect parameter Dm (IC50)): 0.0027 µM
Dose-Reduction Index (DRI) at IC50 [5, 10]: 2.27
Dose-Reduction Index (DRI) at IC75 [5, 10]: 7.02
Dose-Reduction Index (DRI) at IC90 [5, 10]: 21.69
Dose-Reduction Index (DRI) at IC95 [5, 10]: 46.73
dose-reduction index (DRI) ([5]; panaxytriol + Fludelone combination, MX-1 cells): 2.27-46.73

CC(=O)O[C@H]1C(=O)[C@@]2(C)[C@H]([C@H](OC(=O)c3ccccc3)[C@]3(O)C[C@H](OC(=O)[C@H](O)[C@@H](NC(=O)c4ccccc4)c4ccccc4)C(C)=C1C3(C)C)[C@]1(OC(C)=O)CO[C@@H]1C[C@@H]2O [paclitaxel]
IC50 ([2]; read-out: CCRF-CEM (IC50 in μM), Table 3A-2, CCK-8, 72-hr exposure): 0.0013 µM
IC50 ([3]; Table 3A-2, CCK-8, 72-hr exposure, read-out: CCRF-CEM/VBL (IC50 in μM)): 2.26 µM
Fold of resistance (IC50 ratio CCRF-CEM/VBL vs CCRF-CEM) ([3]; Table 3A-2): 1741 fold
IC50 ([6]; Homo sapiens, CCRF-CEM, CCK-8, 72-hr exposure, read-out: CCRF-CEM/TAXOL (IC50 in μM)): 1.12 µM
Fold of resistance (IC50 ratio CCRF-CEM/TAXOL vs CCRF-CEM) [6]: 860 fold
complete remission (CR) ([7]; FIG. 14, paclitaxel 25 mg/kg iv Q2D×8, with or without Compound K 30 mg/kg iv Q4D×14): 10/10
BW loss ([7]; mouse, in vivo): approximately 25%
decrease in BW ([7]; mouse, in vivo): 13.2%
Total score ([8]; per mouse): 8 (3×) and 2 (2×) and 0 and 5 and 3 and 10 and 7
Total score ([8]; whole group of 10 mice): 53
1st & 2nd Cycle Total Score ([8]; per mouse, listed as Taxol): 33 (2×) and 4 (2×) and 15 and 35 and 18 and 34 and 27 and 31
2nd Cycle Total Score ([8]; per mouse, listed as Taxol): 25 (2×) and 2 (2×) and 15 (2×) and 30 and 24 and 20 and 23
1st & 2nd Cycle Total Score ([8]; whole group of 10 mice): 234
2nd Cycle Total Score ([8]; whole group of 10 mice): 181
1st Total score (group) ([8]; days 12-26, sum over 11 mice of the group, first round of paclitaxel): 13
1st Total score (per mouse) ([8]; days 12-26, sum per individual mouse, first round of paclitaxel): 3 and 2 (3×) and 4
2nd Total Score up to day 42 (group) ([8]; days 28-42, sum over 11 mice of the group, second round of paclitaxel): 79
2nd Total Score up to day 42 (per mouse) ([8]; days 28-42, sum per individual mouse, second round of paclitaxel): 8 and 6 (3×) and 9 (3×) and 7 and 5 and 4 and 10
toxicity score (neurotoxicity) ([8]; 27 day): 2
toxicity score (neurotoxicity) ([8]; 59 day): 6

iso-oxazole-dehydelone (17-isooxazole-dehydelone) [isodehydelone]
mice died [9]: Two
